Results reported in publication PMC6112376, “Comprehensive Analyses and Prioritization of Tox21 10K Chemicals Affecting Mitochondrial Function by in-Depth Mechanistic Studies” (Environmental Health Perspectives, 2018).
Where two headings read alike, the source gives them in different places.

What was measured:
HepG2 cells [1] = experiment: Intracellular ATP content (cell viability) assay; assay type: cell-based, human; details: Homo sapiens
[2] = test system: p53 (p53-bla HCT-116 cells); experiment: p53 β-lactamase reporter gene assay; assay type: cell-based, human; details: 16 h incubation, mean±SD of three experiments
HepG2 cells [3] = experiment: ROS-Glo hydrogen peroxide (ROS) assay; assay type: cell-based, human; details: Homo sapiens, read-out: ROS (HepG2) EC50
[4] = test system: mitochondrial respiratory chain complex IV; assay type: biochemical, rat
[5] = test system: Nrf2/ARE (ARE-bla HepG2 cells); experiment: ARE β-lactamase reporter gene assay; assay type: cell-based, human; details: Homo sapiens, HepG2; 16 h incubation; mean±SD of three experiments; read-out: ARE (HepG2) EC50
HepG2 cells [6] = details: cited from earlier work
[7] = test system: mitochondrial respiratory chain complex I; assay type: biochemical, rat
[8] = test system: mitochondrial respiratory chain complex III; assay type: biochemical, rat
[9] = test system: HeLa cells expressing YFP-Parkin; experiment: Parkin translocation assay; assay type: cell-based, human
rat primary hepatocytes [10] = experiment: MMP assay in rat primary hepatocytes; details: for IC50: Rattus norvegicus, Hepatocyte
[11] = test system: Caenorhabditis elegans strain PE255; experiment: In vivo C. elegans ATP status assay
[12] = test system: mitochondrial respiratory chain complex V; assay type: biochemical, rat
HepG2 cells [13] = experiment: cells; details: Homo sapiens
hNSC = experiment: MMP assay in human neural stem cells (hNSC); assay type: cell-based; details: Homo sapiens, Neural stem cell, read-out: hNSC IC50 (MMP)
[14] = test system: Caenorhabditis elegans (Bristol N2); experiment: C. elegans larval development and growth assay
[15] = molecular target: T1, mitochondrial respiratory chain complex II (Rattus norvegicus, UniProt P21913+Q641Z9+Q6PCT8+Q920L2); experiment: Respiratory chain complex II activity; assay type: biochemical; details: tested up to 100μM
T1 construct: Submitochondrial particles were prepared by subjecting the intact rat mitochondria, isolated as described above, to three successive freeze–thaw cycles; from tissue; host or cells: rat liver mitochondria (submitochondrial particles)

[16] = test system: isolated rat liver mitochondria; experiment: Oxygen consumption, Clark-type oxygen electrode; assay type: biochemical
rat primary hepatocytes [17] = test system: rat primary hepatocytes
[18] = 1 h, read-out: Rat hepatocytes IC50 (MMP)
[19] = HepG2, 1 h, read-out: HepG2 IC50 Galactose (MMP)
[20] = HepG2, 1 h, read-out: HepG2 IC50 Glucose (MMP)

T1 sequence (Q920L2 35-656): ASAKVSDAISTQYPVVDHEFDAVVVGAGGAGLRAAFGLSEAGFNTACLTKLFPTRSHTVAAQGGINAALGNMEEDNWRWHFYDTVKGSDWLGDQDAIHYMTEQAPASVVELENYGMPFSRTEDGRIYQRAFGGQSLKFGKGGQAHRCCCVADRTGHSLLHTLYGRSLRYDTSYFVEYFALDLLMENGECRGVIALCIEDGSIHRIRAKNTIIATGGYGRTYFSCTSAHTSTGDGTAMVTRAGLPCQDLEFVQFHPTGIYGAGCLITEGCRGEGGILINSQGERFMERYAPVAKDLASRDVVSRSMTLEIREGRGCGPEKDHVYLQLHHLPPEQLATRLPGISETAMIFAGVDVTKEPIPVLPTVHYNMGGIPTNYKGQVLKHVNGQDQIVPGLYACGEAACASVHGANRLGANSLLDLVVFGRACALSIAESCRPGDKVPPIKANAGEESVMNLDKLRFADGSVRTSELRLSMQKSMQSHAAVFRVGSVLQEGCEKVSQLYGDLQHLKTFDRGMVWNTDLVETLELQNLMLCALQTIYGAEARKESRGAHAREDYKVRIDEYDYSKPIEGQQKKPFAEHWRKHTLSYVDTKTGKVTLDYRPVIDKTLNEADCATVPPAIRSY
T1 sequence (P21913 31-282): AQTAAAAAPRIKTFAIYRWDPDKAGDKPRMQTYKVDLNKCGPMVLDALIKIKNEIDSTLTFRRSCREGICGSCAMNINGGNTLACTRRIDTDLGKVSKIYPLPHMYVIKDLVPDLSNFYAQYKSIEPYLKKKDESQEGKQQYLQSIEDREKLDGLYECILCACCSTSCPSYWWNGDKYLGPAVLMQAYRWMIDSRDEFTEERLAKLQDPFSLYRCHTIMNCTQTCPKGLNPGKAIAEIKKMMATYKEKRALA
T1 sequence (Q641Z9 1-169): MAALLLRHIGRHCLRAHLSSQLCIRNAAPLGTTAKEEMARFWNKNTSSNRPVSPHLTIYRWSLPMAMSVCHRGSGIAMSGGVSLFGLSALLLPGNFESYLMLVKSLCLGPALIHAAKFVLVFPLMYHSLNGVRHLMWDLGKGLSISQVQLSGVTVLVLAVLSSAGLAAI
T1 sequence (Q6PCT8 57-159): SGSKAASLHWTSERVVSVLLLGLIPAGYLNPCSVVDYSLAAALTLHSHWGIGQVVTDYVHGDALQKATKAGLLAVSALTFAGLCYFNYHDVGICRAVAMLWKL

Q: What does the source list for `NNc1nc(-c2ccc([N+](=O)[O-])cc2)cs1` [2-Hydrazino-4-(4-nitrophenyl)thiazole]?
A: IC50 (HepG2 cells [1]; HepG2, 5 mM glucose, 40 h treatment, mean±SD of three experiments, read-out: ATP (HepG2, glucose) IC50): 48.1 ± 24.3 µM; IC50 (HepG2 cells [1]; HepG2, 10 mM galactose, 40 h treatment, mean±SD of three experiments, read-out: ATP (HepG2, galactose) IC50): 35.5 ± 4.54 µM; p53 (HCT-116) EC50 [2]: Inactive; EC50 (HepG2 cells [3]; HepG2, 2 h treatment, mean±SD of three experiments): 15.4 ± 16.6 µM; Complex IV % inhibition (activity call) [4]: Inactive; EC50 [5]: 9.83 ± 3.79 µM; MMP assays efficacy (%) qHTS-HepG2 (HepG2 cells [6]): -106±1%; IC50 (HepG2 cells [6]; read-out: MMP assays IC50 (µM) qHTS-HepG2): 1.6 ± 0.29 µM; Complex I % inhibition ([7]; at 100μM): 21.6±7.1 at 100μM %; Complex III % inhibition (activity call) [8]: Inactive; Parkin recruitment ([9]; HeLa cells stably expressing YFP-Parkin, treated for 2 h): Active; Rat hepatocytes (efficacy) (MMP) (rat primary hepatocytes [10]; % of positive control, mean±SD of three experiments): −73.9±11.0%; IC50 (rat primary hepatocytes [10]; [18]): 20.9 ± 11.3 µM; IC50 (rat primary hepatocytes [10]; read-out: MMP assays IC50 (µM) Rat Hepatocytes): 7.9 ± 5.75 µM; MMP assays efficacy (%) Rat Hepatocytes (rat primary hepatocytes [10]; rat hepatocytes, mean ± SD of three experiments): -89±18%; LUM: mean difference in luminescence (ATP content) relative to plate controls ([11]; 0.5 µM): -0.01284; LUM: mean difference in luminescence (ATP content) relative to plate controls ([11]; 1 µM): -0.00711; LUM: mean difference in luminescence (ATP content) relative to plate controls ([11]; 5 µM): 0.1253; LUM: mean difference in luminescence (ATP content) relative to plate controls ([11]; 10 µM): -0.00409; LUM: mean difference in luminescence (ATP content) relative to plate controls ([11]; 25 µM): 0.7526; LUM: mean difference in luminescence (ATP content) relative to plate controls ([11]; 50 µM): 0.8462; LUM: mean difference in luminescence (ATP content) relative to plate controls ([11]; 75 µM): 1.473; LUM: mean difference in luminescence (ATP content) relative to plate controls ([11]; 100 µM): 1.784; minimal effective concentration ([11]; Caenorhabditis elegans, read-out: LEC LUM: lowest effect concentration for luminescence, a measure of nematode ATP content): 50 µM; Complex V % inhibition (activity call) [12]: Inactive; IC50 (HepG2 cells [13]; [19]): 14.2 ± 2.56 µM; IC50 (HepG2 cells [13]; [20]): 12.1 ± 1.39 µM; IC50 (HepG2 cells [13]; HepG2, read-out: MMP assays IC50 (µM) HepG2): 1.26 µM; Emax (HepG2 cells [13]; HepG2, read-out: MMP assays efficacy (%) HepG2): 97%; IC50 (hNSC; 1 h treatment, fresh re-sourced stocks, mean±SD of three experiments): 4.3 ± 1.42 µM; EXT: mean difference in nematode size relative to plate controls ([14]; 0.5 µM): 0.08621; EXT: mean difference in nematode size relative to plate controls ([14]; 1 µM): 0.08886; EXT: mean difference in nematode size relative to plate controls ([14]; 5 µM): 0.126; EXT: mean difference in nematode size relative to plate controls ([14]; 10 µM): 0.2572; EXT: mean difference in nematode size relative to plate controls ([14]; 25 µM): 0.3181; EXT: mean difference in nematode size relative to plate controls ([14]; 50 µM): 1.067; EXT: mean difference in nematode size relative to plate controls ([14]; 75 µM): 1.594; EXT: mean difference in nematode size relative to plate controls ([14]; 100 µM): 1.403; minimal effective concentration ([14]; Caenorhabditis elegans, read-out: LEC EXT: lowest effect concentration for extinction, a measure of nematode size): 25 µM; Complex II % inhibition (activity call) [15]: Inactive

Q: With `CCCCCC[C@H]1C(=O)O[C@H](C)[C@H](NC(=O)c2cccc(NC=O)c2O)C(=O)O[C@@H](C)[C@@H]1OC(=O)CC(C)C` [Antimycin A, reference compound] as the compound, how does the IC50 (HepG2 cells [1]; HepG2, 40 h, read-out: ATP (HepG2, galactose) IC50) read?
A: 0.05 µM

Q: And the IC50 (HepG2 cells [1]; HepG2, 40 h, read-out: ATP (HepG2, glucose) IC50)?
A: 0.02 µM

Q: What about the “Potential Mechanism” value [16] of the same compound?
A: Inhibitor

Q: And the “effect on mitochondrial respiration (in words)” value [16]?
A: significantly inhibited both glutamate/malate-driven respiration and succinate-driven respiration

Q: And the “I-ADP, % of control (O2 consumption rate)” value ([16]; 0.00128 µM)?
A: 101 (37.5) % of control

Q: And the “I-sub, % of control (O2 consumption rate)” value ([16]; 0.00128 µM)?
A: 104 (11.2) % of control

Q: And the “II-ADP, % of control (O2 consumption rate)” value (shortened to “II-ADP, % of control”) ([16]; 0.00128 µM)?
A: 102 (64.0) % of control

Q: And the “II-sub, % of control (O2 consumption rate)” value (shortened to “II-sub, % of control”) ([16]; 0.00128 µM)?
A: 105 (19.5) % of control

Q: And the “I-ADP, % of control (O2 consumption rate)” value ([16]; 0.0064 µM)?
A: 90 (33.5) % of control

Q: And the “I-sub, % of control (O2 consumption rate)” value ([16]; 0.0064 µM)?
A: 93 (10.0) % of control

Q: And the “II-ADP, % of control” value ([16]; 0.0064 µM)?
A: 83 (52.2) % of control

Q: And the “II-sub, % of control” value ([16]; 0.0064 µM)?
A: 92 (17.1) % of control

Q: What about the “I-ADP, % of control (O2 consumption rate)” value ([16]; 0.032 µM) of the same compound?
A: 59 (22.1) % of control

Q: And the “I-sub, % of control (O2 consumption rate)” value ([16]; 0.032 µM)?
A: 86 (9.3) % of control

Q: And the “II-ADP, % of control” value ([16]; 0.032 µM)?
A: 39 (24.5) % of control

Q: And the “II-sub, % of control” value ([16]; 0.032 µM)?
A: 67 (12.4) % of control

Q: What about the “I-ADP, % of control (O2 consumption rate)” value ([16]; 0.16 µM) of the same compound?
A: 17 (6.4) % of control

Q: What about the “I-sub, % of control (O2 consumption rate)” value ([16]; 0.16 µM) of the same compound?
A: 53 (5.7) % of control

Q: What about the “II-ADP, % of control” value ([16]; 0.16 µM) of the same compound?
A: 10 (6.4) % of control

Q: And the “II-sub, % of control” value ([16]; 0.16 µM)?
A: 36 (6.7) % of control

Q: And the “I-ADP, % of control (O2 consumption rate)” value ([16]; 0.8 µM)?
A: 16 (6.1) % of control

Q: And the “I-sub, % of control (O2 consumption rate)” value ([16]; 0.8 µM)?
A: 63 (6.8) % of control

Q: What about the “II-ADP, % of control” value ([16]; 0.8 µM) of the same compound?
A: 10 (6.4) % of control

Q: What about the “II-sub, % of control” value ([16]; 0.8 µM) of the same compound?
A: 30 (5.6) % of control

Q: What about the “I-ADP, % of control (O2 consumption rate)” value ([16]; 4 µM) of the same compound?
A: 13 (4.8) % of control

Q: What about the “I-sub, % of control (O2 consumption rate)” value ([16]; 4 µM) of the same compound?
A: 51 (5.5) % of control

Q: And the “II-ADP, % of control” value ([16]; 4 µM)?
A: 12 (7.5) % of control

Q: What about the “II-sub, % of control” value ([16]; 4 µM) of the same compound?
A: 31 (5.7) % of control

Q: What about the “I-ADP, % of control (O2 consumption rate)” value ([16]; 20 µM) of the same compound?
A: 15 (5.7) % of control

Q: What about the “I-sub, % of control (O2 consumption rate)” value ([16]; 20 µM) of the same compound?
A: 54 (5.8) % of control

Q: And the “II-ADP, % of control” value ([16]; 20 µM)?
A: 9 (5.8) % of control

Q: And the “II-sub, % of control” value ([16]; 20 µM)?
A: 32 (6.0) % of control

Q: And the “I-ADP, % of control (O2 consumption rate)” value ([16]; 100 µM)?
A: 9 (4.8) % of control

Q: What about the “I-sub, % of control (O2 consumption rate)” value ([16]; 100 µM) of the same compound?
A: 26 (5.6) % of control

Q: What about the “II-ADP, % of control” value ([16]; 100 µM) of the same compound?
A: 7 (4.0) % of control

Q: And the “II-sub, % of control” value ([16]; 100 µM)?
A: 13 (4.6) % of control

Q: What about the EC50 ([2]; Homo sapiens) of the same compound?
A: 0.31 ± 0.04 µM

Q: What about the EC50 (HepG2 cells [3]; HepG2, 2 h) of the same compound?
A: 6.83 µM

Q: And the “Complex IV % inhibition (activity call)” value [4]?
A: Inactive

Q: And the EC50 [5]?
A: 0.47 ± 0.42 µM

Q: And the “Complex I % inhibition (activity call)” value [7]?
A: Inactive

Q: What about the “Rat hepatocytes (efficacy) (MMP)” value (rat primary hepatocytes [17]) of the same compound?
A: 2.65±1.08 ( −94.9±3.37 ) %

Q: And the “inhibitory effect on Complex III at (concentration)” value [8]?
A: 0.032 µM

Q: What about the “Complex III % inhibition” value ([8]; at 0.032μM) of the same compound?
A: 71.1±2.91 at 0.032μM %

Q: And the Parkin recruitment [9]?
A: Active

Q: What about the “Parkin translocation into mitochondria (in words)” value ([9]; 3 h) of the same compound?
A: significantly increased Parkin translocation into mitochondria

Q: What about the IC50 (rat primary hepatocytes [10]; [18]) of the same compound?
A: 2.65 µM

Q: And the “Complex V % inhibition (activity call)” value [12]?
A: Inactive

Q: What about the IC50 (HepG2 cells [13]; [19]) of the same compound?
A: 0.25 µM

Q: What about the IC50 (HepG2 cells [13]; [20]) of the same compound?
A: 2.79 µM

Q: And the IC50 (hNSC; 1 h)?
A: 2.91 µM

Q: And the “Complex II % inhibition (activity call)” value [15]?
A: Inactive
